From article PMC3702540, “Sphingosine Kinase Activity Is Not Required for Tumor Cell Viability” (PLoS ONE, 2013)

What was measured:
[1] = molecular target: mSPHK1 (Mus musculus, UniProt Q8CI15); assay: Biochemical SPHK activity, 33P incorporation into S1P; parameters: species or system murine; conditions: biochemical assay
Description: (§1) A biochemical assay was used to measure the incorporation of ^33P-radiolabeled phosphate from ATP into S1P. Reactions were performed in 96-well polystyrene high-binding microplates (Greiner) in a volume of 60 µl. Reaction mixtures contained 50 mM HEPES (pH 7.5), 3 mM MgCl2, 10 mM NaF, 1 µM ATP, 0.75 µCi of [γ-33P]ATP, 1.11 µM sphingosine (Biomol International) in the presence of either 0.005% Triton X-100 (SPHK1) or 0.0025% NP-40 (SPHK2). Enzymatic reactions were initiated by adding 30 nM of sphingosine kinase in the presence of 2 mM dithiothreitol (DTT). Reactions were terminated after 50 min at 30°C by adding 30 µL 7.5 M Guanidine HCl. Plates were then washed three times with 200 µl PBS before 50 ul of scintillate was added to each well. The assay was quantified by counting in a Packard TopCount (Perkin Elmer).

[2] = system: human breast cancer cell line MDA-MB-231; assay: Cellular SPHK activity, C17 S1P levels; conditions: MDA-MB-231, 2 h, read-out: IC50, inhibition of cellular SPHK activity (C17 S1P)
Description: (§9) Frozen cell pellets (1×10^6 cells) were thawed and 75 µl of methanol was added. The samples were transferred to an un-skirted 96 well PCR plate after which they were mixed to a homogeneous solution. The plate was then sealed and pulsed for 6 seconds per well (E200-S0%250 mV500 setting) on a Covaris Adaptive Focused Acoustic (AFA) cell disruptor (Covaris, Woburn, MA). 130 µl of Dichloromethane was then added to each well after which plates were incubated at room temperature for 2 hours. Post incubation, 52 µl of ddH2O was added to induce phase separation. […] 45 µl of this final sample was transferred to a 384 well plate and analyzed on a RapidfireTM (Biocius, Wakefield, MA) ultra-high throughput chromatography system interfaced with a TSQ Vantage triple stage quadrupole mass spectrometer (Thermo Scientific, Waltham, MA). […] After an aqueous wash ((80∶20) Methanol/ddH2O containing 75 mM NH4OH and 0.1% formic acid) to remove the S1P extraction components that interfere with mass spectrometry, C17-S1P was eluted ((99∶1) Methanol/ddH2O containing 0.1% formic acid) and analyzed by inline triple stage quadrupole mass spectrometry. […] C17-S1P was monitored using a selective reaction monitoring protocol which detected the loss of a phosphate molecule from the parent ion C17-S1P. […]
(§10) Two hours after addition of C17 sphingosine, cells were lysed and levels of C17 S1P were determined.

[3] = system: MDA-MB-231 xenograft tumors; assay: MDA-MB-231 tumor xenograft model; assay type: in vivo; conditions: athymic nude mice
Description: MDA-MB-231 cells were purchased from the American Type Culture Collection (ATCC) and maintained in DMEM high glucose with 10% fetal bovine serum (FBS) and 1x-L-glutamine. Mice were injected subcutaneously with 5×10^6 cells in 30% Matrigel (BD Biosciences, San Jose, CA). […] Vehicle and compound A were administered by oral gavage daily. Taxotere was administered by intraperitoneal injection once a week. Tumor dimensions were assessed twice weekly with a Pro-Max electronic digital caliper (Sylvac, Crissier, Switzerland) and tumor volume was calculated using the formula: length x width x height and expressed as mm^3. Data are expressed as mean +/− SE (n = 7–10). Repeated-measures analysis of variance (RMANOVA) followed by Dunnett’s post hoc test for multiple comparisons was used to evaluate statistical significance of observed differences. Body weight was recorded twice weekly as an index of toxicity.
Here, athymic nude mice were implanted s.c. with human MDA-MD-231 breast cancer cells. Dosing was initiated 18 days later when the tumors had reached ∼ 200 mm^3.
Female athymic nude mice were injected with 5×10^6 MDA-MB-231 cells on day 0. […] (n = 7–10 per group); bars, SE. *, P<0.0001, compared to vehicle.

[4] = system: panel of cell lines; assay: 72 h viability assays, summary for panel of cell lines; assay type: cell-based; conditions: regular culture conditions and serum starvation
Description: (§2) Cell lines were obtained from ATCC and cultured in Dulbecco’s Modification of Eagle’s Medium (Corning® cellgro 10-013) supplemented with 5% FBS and 1% P/S or in Minimum Essential Medium (Corning® cellgro® 10-010) supplemented with 10% FBS, 0.1 mM MEM Nonessential Amino Acids (Corning® cellgro 25-025), 1.0 mM sodium pyruvate (Corning® cellgro 25-000) and 1% P/S. Cells were seeded at a density of 5000 cells per well in 96-well cell culture plates on day1. Media was changed with or without serum and dosed with compound on Day 2. On day5 the Cell Viability assay was performed with CellTiter-Glo® Reagent (Promega) according to the manufacturers instruction.
(§3) S1P has been reported to be important for tumor cell viability, and reduction of intracellular S1P levels has been associated with greater cellular sensitivity to pro-apoptotic stress, [7]. […] A panel of cell lines likely to be sensitive to SPHK inhibition was assembled based on literature reports, internal siRNA data and SPHK expression levels, [9], [21]. Viability was monitored after 72 h of SPHK inhibition under regular culture conditions to assess direct effects on cell viability, and under serum starvation to assess the effects of SPHK inhibition under stress conditions.

[5] = system: LN18; assay: 72 h viability assay (CellTiter-Glo); assay type: cell-based; conditions: Homo sapiens, LN-18, LN18 (Brain), inflection point of titration curve
Description: as §2
(§4) S1P has been reported to be important for tumor cell viability, and reduction of intracellular S1P levels has been associated with greater cellular sensitivity to pro-apoptotic stress, [7]. Compounds A and B were used to test this hypothesis experimentally. A panel of cell lines likely to be sensitive to SPHK inhibition was assembled based on literature reports, internal siRNA data and SPHK expression levels, [9], [21]. Viability was monitored after 72 h of SPHK inhibition under regular culture conditions to assess direct effects on cell viability, and under serum starvation to assess the effects of SPHK inhibition under stress conditions. […] Cell death was only observed at higher concentrations (3 to 30 µM). […] Like all substrate competitive SPHK inhibitors, these compounds have a polar headgroup and a lipophilic tail, and can act as detergents at higher concentrations. […]

[6] = system: HS294T; assay: 72 h viability assay (CellTiter-Glo); assay type: cell-based; conditions: Homo sapiens, Hs 294T, HS294T (Skin), inflection point of titration curve
Description: as §2, §4

[7] = system: A375; assay: 72 h viability assay (CellTiter-Glo); assay type: cell-based; conditions: Homo sapiens, A-375, A375 (Skin), inflection point of titration curve
Description: as §2, §4

[8] = system: WM266-4; assay: 72 h viability assay (CellTiter-Glo); assay type: cell-based; conditions: Homo sapiens, WM 266-4, WM266-4 (Skin), inflection point of titration curve
Description: as §2, §4

[9] = system: HA-1; assay: 72 h viability assay (CellTiter-Glo); assay type: cell-based; conditions: read-out: IC50 viability
Description: as §2, §4

[10] = system: HeLa; assay: 72 h viability assay (CellTiter-Glo); assay type: cell-based; conditions: Homo sapiens, HeLa (Cervix), inflection point of titration curve
Description: as §2, §4

[11] = system: LN229; assay: 72 h viability assay (CellTiter-Glo); assay type: cell-based; conditions: Homo sapiens, LN-229, LN229 (Brain), inflection point of titration curve
Description: as §2, §4

[12] = system: Saos2; assay: 72 h viability assay (CellTiter-Glo); assay type: cell-based; conditions: Homo sapiens, SAOS-2, Saos2 (Bone), inflection point of titration curve
Description: as §2, §4

[13] = system: Colo 320; assay: 72 h viability assay (CellTiter-Glo); assay type: cell-based; conditions: Homo sapiens, Colo 320 (Colon), inflection point of titration curve
Description: as §2, §4

[14] = system: UACC257; assay: 72 h viability assay (CellTiter-Glo); assay type: cell-based; conditions: Homo sapiens, UACC-257, UACC257 (Skin), inflection point of titration curve
Description: as §2, §4

[15] = system: LN229 cells; assay: 15 day colony formation assay; assay type: cell-based, human; conditions: concentrations up to 1 µM
Description: LN-229 cells were cultured in Dulbecco’s Modification of Eagle’s Medium (Corning® cellgro 10-013) supplement with 5%FBS and 1% P/S. On Day 1 cells were seeded on 6-well tissue culture plates at density of 800 cells per well. On Day 2 compounds were added and cells were incubated for 15 days at 37°C. Cells were then stained with Crystal violet.
The long term effect of SPHK inhibition on cell viability was studied in the glioblastoma cell line LN229. […] Concentrations of more than 3 µM led to immediate cell death due to cell lysis and prevented the formation of colonies (figure 5).
Figure 5 Effects of SPHK inhibition in colony formation assays. LN229 cells were seeded at a density of 800 cells/well in a six well plate in the presence of the indicated concentrations of SPHK inhibitor. After 15 days, cells were fixed and stained with crystal violet.

[16] = Compound plasma concentration in mice after oral gavage; assay type: in vivo
Description: (§5) For S1P measurements, plasma was extracted with 0.1% formic acid/methanol containing an internal standard (C17-S1P) and subjected to LC-MS/MS analysis. […] The method provided linear response over a concentration range of 1 to 2000 ng/ml. A separate aliquot of plasma was extracted with acetonitrile containing an internal standard (structural analog) and subjected to reversed-phase liquid chromatographic using a Shiseido UG Capcell C18, 50×2 mm analytical column (Phenomenex). MS/MS analysis was conducted on a API4000 with an electrospray interface using multiple reaction monitoring (MRM) in the positive ionization mode.
(§6) Female athymic nude mice were assigned to one of fifteen treatment groups. […] At various times after dosing (2 to 24 h), mice were sacrificed and plasma collected to determine S1P levels and compound concentrations. Data are mean ± SE (n = 5). […] S1P and drug concentration were determined by LC-MS/MS.
(§7) The inhibition of sphingosine kinase was evaluated in a pharmacodynamic assay. […] At 2, 7 and 24 hours post dose, plasma was collected and levels of S1P and plasma drug concentration were determined.

[17] = system: plasma levels of S1P; assay: Pharmacodynamic assay, plasma S1P levels in mice; assay type: in vivo
Description: as §5, §6, §7

[18] = system: murine melanoma cell line B16F10; assay: Cellular SPHK activity, C17 S1P levels; conditions: Mus musculus, B16-F10, 2 h, read-out: IC50, inhibition of cellular SPHK activity (C17 S1P)
Description: as §9, §10

[19] = system: human cell lines; assay: Cellular SPHK activity, C17 S1P levels, summary for human cell lines; assay type: cell-based
[20] = system: LOX; assay: 72 h viability assay (CellTiter-Glo); assay type: cell-based, human; conditions: LOX (Skin), inflection point of titration curve
Description: as §2, §3
(§8) The IC50s reflect the inflection point of the titration curve.

[21] = system: human melanoma cell line WM266.4; assay: Cellular SPHK activity, C17 S1P levels; conditions: WM 266-4, 2 h, read-out: IC50, inhibition of cellular SPHK activity (C17 S1P)
Description: as §9, §10

[22] = molecular target: mSPHK2 (Mus musculus, UniProt Q9JIA7); assay: Biochemical SPHK activity, 33P incorporation into S1P; parameters: species or system murine; conditions: biochemical assay
mSPHK2, sequence (Q9JIA7 whole entry): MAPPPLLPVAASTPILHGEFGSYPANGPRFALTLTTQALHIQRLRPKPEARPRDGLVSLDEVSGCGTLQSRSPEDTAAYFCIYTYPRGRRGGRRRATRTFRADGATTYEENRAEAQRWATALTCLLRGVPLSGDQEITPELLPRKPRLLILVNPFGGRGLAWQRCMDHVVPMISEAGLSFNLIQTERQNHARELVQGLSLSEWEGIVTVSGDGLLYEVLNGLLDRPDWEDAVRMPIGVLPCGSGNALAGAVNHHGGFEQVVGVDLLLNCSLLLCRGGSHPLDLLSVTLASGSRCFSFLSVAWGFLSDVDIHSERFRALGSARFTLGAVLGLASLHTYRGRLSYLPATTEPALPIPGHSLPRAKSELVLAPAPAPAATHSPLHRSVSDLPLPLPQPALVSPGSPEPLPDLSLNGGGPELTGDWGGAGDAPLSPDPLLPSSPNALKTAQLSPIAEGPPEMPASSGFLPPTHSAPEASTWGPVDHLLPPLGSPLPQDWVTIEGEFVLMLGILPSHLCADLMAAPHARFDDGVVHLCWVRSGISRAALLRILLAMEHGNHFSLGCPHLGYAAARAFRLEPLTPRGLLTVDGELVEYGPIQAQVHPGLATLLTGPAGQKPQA
Description: as §1

[23] = molecular target: hSPHK1 (Homo sapiens, UniProt Q9NYA1); assay: as above; conditions: biochemical assay
hSPHK1, sequence (Q9NYA1 whole entry): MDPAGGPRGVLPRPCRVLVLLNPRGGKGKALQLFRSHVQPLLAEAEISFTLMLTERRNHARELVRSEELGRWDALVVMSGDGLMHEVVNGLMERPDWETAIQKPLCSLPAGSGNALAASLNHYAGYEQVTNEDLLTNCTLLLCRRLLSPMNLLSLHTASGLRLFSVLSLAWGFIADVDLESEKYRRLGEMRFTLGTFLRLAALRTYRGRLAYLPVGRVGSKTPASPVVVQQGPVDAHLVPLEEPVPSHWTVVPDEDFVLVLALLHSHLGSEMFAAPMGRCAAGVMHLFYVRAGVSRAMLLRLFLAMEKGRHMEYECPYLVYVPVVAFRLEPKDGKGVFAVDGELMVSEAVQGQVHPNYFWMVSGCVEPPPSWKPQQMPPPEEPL
Description: as §1

[24] = molecular target: hSPHK2 (Homo sapiens, UniProt Q9NRA0); assay: as above; conditions: biochemical assay
hSPHK2, sequence (Q9NRA0 whole entry): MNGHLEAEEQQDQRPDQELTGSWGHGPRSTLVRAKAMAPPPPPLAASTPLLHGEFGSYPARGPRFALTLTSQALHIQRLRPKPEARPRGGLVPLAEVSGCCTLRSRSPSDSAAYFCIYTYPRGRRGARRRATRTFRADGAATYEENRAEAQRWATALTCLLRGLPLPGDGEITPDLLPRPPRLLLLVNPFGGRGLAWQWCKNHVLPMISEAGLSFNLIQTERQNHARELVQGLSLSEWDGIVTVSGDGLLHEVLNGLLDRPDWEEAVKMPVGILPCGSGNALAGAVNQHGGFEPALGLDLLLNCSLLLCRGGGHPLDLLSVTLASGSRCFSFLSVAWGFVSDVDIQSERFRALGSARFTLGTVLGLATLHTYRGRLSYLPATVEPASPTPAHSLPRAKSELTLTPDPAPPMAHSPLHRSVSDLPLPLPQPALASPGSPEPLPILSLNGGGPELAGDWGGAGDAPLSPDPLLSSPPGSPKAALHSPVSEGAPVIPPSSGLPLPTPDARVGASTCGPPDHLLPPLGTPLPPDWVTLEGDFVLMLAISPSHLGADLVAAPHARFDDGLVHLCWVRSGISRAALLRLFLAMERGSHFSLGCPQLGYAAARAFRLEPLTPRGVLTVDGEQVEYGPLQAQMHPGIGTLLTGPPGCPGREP
Description: as §1

[25] = system: SPHK1; parameters: method as in PMID 22397330; conditions: cited from earlier work
[26] = system: human melanoma cell line LOX; assay: Endogenous S1P levels 24 h after compound treatment; assay type: cell-based; conditions: 24 h treatment, read-out: IC50, endogenous S1P production (LOX)
Source text: Several SPHK inhibitors have been reported in the literature, and have been utilized to support the rheostat theory.
as §8

mSPHK1, sequence (Q8CI15 whole entry): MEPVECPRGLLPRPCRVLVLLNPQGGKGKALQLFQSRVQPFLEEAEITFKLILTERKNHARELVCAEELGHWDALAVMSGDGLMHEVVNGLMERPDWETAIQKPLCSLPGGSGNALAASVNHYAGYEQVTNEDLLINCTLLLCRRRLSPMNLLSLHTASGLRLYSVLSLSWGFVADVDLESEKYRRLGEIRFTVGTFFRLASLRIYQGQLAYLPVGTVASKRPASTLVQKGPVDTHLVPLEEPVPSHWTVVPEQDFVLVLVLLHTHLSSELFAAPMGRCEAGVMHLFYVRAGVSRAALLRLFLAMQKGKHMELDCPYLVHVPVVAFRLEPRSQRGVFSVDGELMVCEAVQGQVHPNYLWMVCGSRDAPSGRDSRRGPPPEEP

Compound	IC50 [1]	effect on viability at 1 µM compound [4]	IC50 [5]	IC50 [6]	IC50 [7]	IC50 [8]	IC50 [9]	IC50 [10]	IC50 [11]	IC50 [12]	IC50 [13]	IC50 [14]	viability in 72 h proliferation and 15 day colony formation assays [15]	IC50s, inhibition of SPHK activity in human cell lines [19]	IC50 ([20]; Homo sapiens)	IC50 [21]	IC50 [22]	IC50 [24]	also measured
OC[C@H]1C[C@@H](O)CCN1CCc1ccc(Nc2nc(-c3ccc(C(F)(F)F)cc3)cs2)cc1 [Compound A]	0.064 µM	did not result in reduced viability	4.1 µM	6 µM	8.3 µM	6 µM	6.3 µM	6.4 µM	4.8 µM	7 µM	5.1 µM	4.4 µM	viability was unchanged	double digit nanomolar range	4 µM	0.063 µM	–	–	IC50 [2]: 0.09 µM; effect on tumor growth in vivo ([3]; 300 mg/kg daily by oral gavage from day 18): did not lead to significant inhibition of tumor growth; mice in which compound was not tolerated (deaths) ([3]; 300 mg/kg daily by oral gavage, cause of death unknown): 3 out of the 10; oral bioavailability [16]: orally bioavailable; plasma exposure at maximum inhibition of plasma S1P [16]: 0.38 µM; reduction of host / plasma S1P levels ([17]; 300 mg/kg oral): more than 70%; maximum inhibition of plasma levels of S1P ([17]; oral gavage 10-300 mg/kg, at plasma exposure of 0.38 µM): 72%; IC50 [18]: 0.25 µM
OC[C@H]1C[C@H](O)CN1CCCc1ccc(Nc2nc(-c3cccc(C(F)(F)F)c3)cs2)cc1 [Compound B]	0.055 µM	did not result in reduced viability	5.5 µM	10.1 µM	17.4 µM	13.2 µM	15.5 µM	14.3 µM	8.7 µM	13.5 µM	9.4 µM	6.5 µM	viability was unchanged	double digit nanomolar range	6.2 µM	0.036 µM	> 5 µM	0.06 µM	IC50 [23]: 0.008 µM
CCCCCc1ccc(/C=C/[C@H](O)[C@@H](CO)NC)cc1 [SK1-I]	–	–	–	–	–	–	–	–	–	–	–	–	–	–	–	–	–	–	biochemical IC50 [25]: in the micromolar range
Oc1ccc(Nc2nc(-c3ccc(Cl)cc3)cs2)cc1 [SKII, reference compound]	> 10 µM	–	–	–	–	–	–	–	–	–	–	–	–	–	–	–	> 10 µM	13 µM	IC50 (mSPHK1) [1]: too low to be detected; IC50 [26]: 7.5 µM; IC50 [20]: 11.3 µM
